# Results published in US20180098977A1, “SCALABLE MICROPARTICULATE FORMULATIONS CONTAINING POLYMORPHIC NIMODIPINE FORM 2 PREPARED BY A SOLVENT EVAPORATION PROCESS” (Edge Therapeutics, Inc., priority 2016, published 2018).
# Columns and labels:
# [1] = at 25° C.; cited from earlier work
# [2] = tested on: subjects with an aneurysmal subarachnoid hemorrhage (aSAH); test: NEWTON Phase 1/2 study, efficacy and safety; assay type: in vivo, human
# From the text: NEWTON (Nimodipine microparticles to Enhance recovery While reducing TOxicity after subarachNoid hemorrhage) was a multicenter, randomized, controlled, open-label Phase 1/2 study evaluating the safety, tolerability and pharmacokinetics of escalating doses of a polymeric nimodipine microparticle suspended in a diluent of hyaluronic acid (EG-1962) compared to the current standard of care, oral nimodipine, in subjects with an aneurysmal subarachnoid hemorrhage (aSAH).
# Fifty-four patients were randomized to receive EG-1962 and 18 patients were randomized to receive oral nimodipine.
# The primary endpoint was to establish the maximum tolerated dose, which has been determined to be 800 mg. […] The secondary endpoint of characterizing the pharmacokinetics of EG-1962 was also met. The steady-state plasma concentration measured in patients treated with EG-1962 was below 30 ng/ml, the level of plasma concentration observed to cause systemic hypotension.
Structure (SMILES),solubility in water [1] [mg 100 mL^−1],"patients who achieved a favorable outcome (scores of 6-8, Extended Glasgow Outcome Score [GOSE]) ([2]; at 90 days, pooled efficacy results) [%]","patients who experienced drug-related hypotension ([2]; human, in vivo) [%]"
"COCCOC(=O)C1=C(C)NC(C)=C(C(=O)OC(C)C)C1c1cccc([N+](=O)[O-])c1 (stereo not shown) [Mod II, Nimodipine]",0.018±0.004,–,–
"COCCOC(=O)C1=C(C)NC(C)=C(C(=O)OC(C)C)C1c1cccc([N+](=O)[O-])c1 (racemic) [Mod I, Nimodipine]",0.036±0.007,–,–
"COCCOC(=O)C1=C(C)NC(C)=C(C(=O)OC(C)C)C1c1cccc([N+](=O)[O-])c1 (stereo not shown) [nimodipine, isopropyl(2-methoxyethyl)-1,4-dihydro-2,6-dimethyl-4-(3-nitrophenyl)-3,5-pyridinedicarboxylate]",–,28,17
